In patent US10253002B2, “Compounds and methods of treating infections” (Neoculi Pty Ltd., priority 2013, dated 2019):
≈ marks a conversion by molar mass, not a printed value. Where two headings read alike, the source gives them in different places.

Experiments:
[1] = test system: Streptococcus pneumoniae; assay: Broth microdilution MIC (CLSI) in 4% LHB-CAMHB, Example 1; format: cell-based
Experimental: The powder was dissolved in 10 mL DMSO and 1 mL volumes were aliquoted into eppendorf tubes and stored at -80° C. […] Serial dilutions were prepared in 96 well plates were set up in a safety cabinet according to methods standard in the art. Briefly: 90 μL of the working antibiotic solution was added to each well in Column 12 of the plate, and mixed well, before 90 μL was transferred to column 11. The solutions were mixed again, and then transferred to the next column as before, continuing the dilutions through to column 3. Mixing the well requires the pick up and expulsion of 90 μL in each well 3-4 times before picking up and transferring the 90 μL to the next well. […] The bacterial solution was placed into a sterile trough and 10 μL of bacterial solution added into wells 2 through to 12 on each required row (dilution of 1:10, with final concentration of bacteria in wells=5×10^5 CFU/mL). The tray was sealed and incubated at 37° C. for 18-24 h. The purity of bacterial suspension was confirmed by streaking out 50 μL of the 1:20 dilution onto a SBA plate, which was incubated for 37° C. for 18 h and examined. Viable counts were carried out to ensure that the correct concentration of bacteria and been added to the wells. […] The following day the number of colonies on the plates was counted and the average count in 100 μL obtained. The study was multiplied by 10 to obtain a viable bacterial count per mL. Minimum inhibitory concentrations (μg/mL) were determined using the broth microdilution method recommended by the Clinical and Laboratory Standards Institute (CLSI) (Methods for Dilution Antimicrobial Susceptibility Tests for Bacteria That Grow Aerobically; Approved Standard-Seventh Edition. CLSI M7-A7, 2006; Performance Standards for Antimicrobial Disk and Dilution Susceptibility Tests for Bacteria Isolated from Animals; Approved Standard-Second Edition. CLSI […]-A2, 2002; Performance Standards for Antimicrobial Susceptibility Testing; CLSI M2-A9, 2006). […] Bacterial growth (turbidity) in the wells with antimicrobial was compared with the amount of growth (turbidity) in the growth-control well (containing no antimicrobial). All isolates were tested in duplicate, if there was a difference of greater than one two-fold dilution in the results, the test was repeated a third time. The purity of the isolates was closely monitored during testing by subculturing the prepared bacterial inoculum onto SBA. Control organisms (Enterococcus faecalis strain ATCC 29212, S. aureus strain ATCC 29213 and S. pneumoniae strain ATCC 49619) were used throughout the testing to monitor quality control. […] The MIC50, MIC90 and MIC range (minimum and maximum) were calculated for each of the bacterial groups.

[2] = test system: VRE; assay: Broth microdilution MIC, Example 7 (NCL812 and analogues); format: cell-based, Enterococcus spp.; settings: Enterococcus, VRE
How it was run: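 Duplicates per isolate, repeated a third time if >one two-fold dilution apart. MIC50, MIC20 and range calculated per bacterial group.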

CC1(C)S[C@@H]2[C@H](NC(=O)[C@H](N)c3ccccc3)C(=O)N2[C@H]1C(=O)O [Ampicillin]
MIC90 ([1]; Str. pneumoniae, 20 isolates): 0.25 µg/mL (≈ 0.715 µM)
MIC90 ([1]; Streptococcus pneumoniae isolates of Table 5, Test 1, read-out: MIC90): 0.25 µg/mL (≈ 0.715 µM)
MIC90 ([1]; Streptococcus pneumoniae isolates of Table 5, Test 2): 0.25 µg/mL (≈ 0.715 µM)
MIC ([1]; Streptococcus pneumoniae, ATCC49619, S. pneumoniae strain ATCC 49619, read-out: MIC of control strain (internal quality control)): 0.06 µg/mL
MIC ([1]; Streptococcus pneumoniae, ATCC49619, Strep. pneumoniae ATCC 49619, Test 1, read-out: MIC): < 0.25 µg/mL
MIC ([1]; Streptococcus pneumoniae, ATCC49619, Strep. pneumoniae ATCC 49619, Test 2, read-out: MIC): < 0.25 µg/mL
MIC ([1]; Streptococcus pneumoniae, Strep. pneumoniae 1, Test 1, read-out: MIC): < 0.25 µg/mL
MIC ([1]; Streptococcus pneumoniae, Strep. pneumoniae 1, Test 2, read-out: MIC): < 0.26 µg/mL
MIC ([1]; Streptococcus pneumoniae, Strep. pneumoniae 2, Test 1, read-out: MIC): < 0.26 µg/mL
MIC ([1]; Streptococcus pneumoniae, Strep. pneumoniae 2, Test 2, read-out: MIC): < 0.25 µg/mL
MIC ([1]; Streptococcus pneumoniae, Strep. pneumoniae 3, Test 1, read-out: MIC): < 0.25 µg/mL
MIC ([1]; Streptococcus pneumoniae, Strep. pneumoniae 3, Test 2, read-out: MIC): < 0.25 µg/mL
MIC ([1]; Streptococcus pneumoniae, Strep. pneumoniae 4, Test 1, read-out: MIC): < 0.25 µg/mL
MIC ([1]; Streptococcus pneumoniae, Strep. pneumoniae 4, Test 2, read-out: MIC): < 0.25 µg/mL
MIC ([1]; Streptococcus pneumoniae, Strep. pneumoniae 5, Test 1, read-out: MIC): < 0.25 µg/mL
MIC ([1]; Streptococcus pneumoniae, Strep. pneumoniae 5, Test 2, read-out: MIC): < 0.26 µg/mL
MIC ([1]; Streptococcus pneumoniae, Strep. pneumoniae 6, Test 1, read-out: MIC): < 0.26 µg/mL
MIC ([1]; Streptococcus pneumoniae, Strep. pneumoniae 6, Test 2, read-out: MIC): < 0.25 µg/mL
MIC ([1]; Streptococcus pneumoniae, Strep. pneumoniae 7, Test 1, read-out: MIC): < 0.25 µg/mL
MIC ([1]; Streptococcus pneumoniae, Strep. pneumoniae 7, Test 2, read-out: MIC): < 0.26 µg/mL
MIC ([1]; Streptococcus pneumoniae, Strep. pneumoniae 8, Test 1, read-out: MIC): < 0.25 µg/mL
MIC ([1]; Streptococcus pneumoniae, Strep. pneumoniae 8, Test 2, read-out: MIC): < 0.25 µg/mL
MIC ([1]; Streptococcus pneumoniae, Strep. pneumoniae 9, Test 1, read-out: MIC): < 0.26 µg/mL
MIC ([1]; Streptococcus pneumoniae, Strep. pneumoniae 9, Test 2, read-out: MIC): < 0.25 µg/mL
MIC ([1]; Streptococcus pneumoniae, Strep. pneumoniae 10, Test 1, read-out: MIC): < 0.06 µg/mL
MIC ([1]; Streptococcus pneumoniae, Strep. pneumoniae 10, Test 2, read-out: MIC): < 0.06 µg/mL
MIC ([1]; Streptococcus pneumoniae, Strep. pneumoniae 12, Test 1, read-out: MIC): < 0.06 µg/mL
MIC ([1]; Streptococcus pneumoniae, Strep. pneumoniae 12, Test 2, read-out: MIC): < 0.06 µg/mL
MIC ([1]; Streptococcus pneumoniae, Strep. pneumoniae 13, Test 1, read-out: MIC): < 0.06 µg/mL
MIC ([1]; Streptococcus pneumoniae, Strep. pneumoniae 13, Test 2, read-out: MIC): < 0.06 µg/mL
MIC ([1]; Streptococcus pneumoniae, Strep. pneumoniae 14, Test 1, read-out: MIC): < 0.06 µg/mL
MIC ([1]; Streptococcus pneumoniae, Strep. pneumoniae 14, Test 2, read-out: MIC): < 0.06 µg/mL
MIC ([1]; Streptococcus pneumoniae, Strep. pneumoniae 15, Test 1, read-out: MIC): 0.25 µg/mL (≈ 0.715 µM)
MIC ([1]; Streptococcus pneumoniae, Strep. pneumoniae 15, Test 2, read-out: MIC): 0.25 µg/mL (≈ 0.715 µM)
MIC ([1]; Streptococcus pneumoniae, Strep. pneumoniae 16, Test 1, read-out: MIC): 2 µg/mL (≈ 5.72 µM)
MIC ([1]; Streptococcus pneumoniae, Strep. pneumoniae 16, Test 2, read-out: MIC): 2 µg/mL (≈ 5.72 µM)
MIC ([1]; Streptococcus pneumoniae, Strep. pneumoniae 18, Test 1, read-out: MIC): 0.25 µg/mL (≈ 0.715 µM)
MIC ([1]; Streptococcus pneumoniae, Strep. pneumoniae 18, Test 2, read-out: MIC): 0.25 µg/mL (≈ 0.715 µM)
MIC ([1]; Streptococcus pneumoniae, Strep. pneumoniae 19, Test 1, read-out: MIC): 0.25 µg/mL (≈ 0.715 µM)
MIC ([1]; Streptococcus pneumoniae, Strep. pneumoniae 19, Test 2, read-out: MIC): 0.25 µg/mL (≈ 0.715 µM)
MIC ([1]; Streptococcus pneumoniae, Strep. pneumoniae 20, Test 1, read-out: MIC): 2 µg/mL (≈ 5.72 µM)
MIC ([1]; Streptococcus pneumoniae, Strep. pneumoniae 20, Test 2, read-out: MIC): 2 µg/mL (≈ 5.72 µM)
MIC50 ([1]; Streptococcus pneumoniae, Str. pneumoniae, 20 isolates): < 0.25 µg/mL
MIC ([1]; Streptococcus pneumoniae, Str. pneumoniae, 20 isolates, read-out: MIC mode): < 0.25 µg/mL
MIC ([2]; 24 h, read-out: MIC (μg/ml) at 24 hours, VRE 1, isolate VRE 1, 24 hours, 1st and 2nd replicate rows): 0.5 µg/mL (≈ 1.43 µM)
MIC ([2]; 24 h, read-out: MIC (μg/ml) at 24 hours, VRE 2, isolate VRE 2, 24 hours, 1st and 2nd replicate rows): 0.25 µg/mL (≈ 0.715 µM)
MIC ([2]; VRE 002 [H12c], Phase I, 1st, read-out: MIC): 1 µg/mL (≈ 2.86 µM)
MIC ([2]; VRE 002 [H12c], Phase I, 2nd, read-out: MIC): 1 µg/mL (≈ 2.86 µM)
MIC ([2]; VRE 002 [H12c], Phase II, 1st, read-out: MIC): 0.25 µg/mL (≈ 0.715 µM)
MIC ([2]; VRE 002 [H12c], Phase II, 2nd, read-out: MIC): 0.25 µg/mL (≈ 0.715 µM)
